Data on 18 compounds can be found in patent publication US20240270762A1, “PENICILLIN-BINDING PROTEIN INHIBITORS” (priority 2021, published 2024).

For experiment [1], the system named is N. gonorrhoeae WHO Z. The experiment in a line: Liquid broth MIC in Fastidious broth. The note with it: Neisseria gonorrhoeae, read-out: Minimum Inhibitory Concentration (MIC), N. gonorrhoeae WHO Z.
In experiment [2] the test system is N. gonorrhoeae WHO X. The experiment in a line: Liquid broth MIC in Fastidious broth. Conditions: Neisseria gonorrhoeae, read-out: Minimum Inhibitory Concentration (MIC), N. gonorrhoeae WHO X.
Experimental: Liquid broth-based assays were used for antibacterial testing of PBP inhibitors in Neisseria gonorrhoeae. Briefly, cryo-preserved bacterial cultures of clinical strains were streaked for isolation on Chocolate Agar (72 g/L (2×) GC Agar Base (BD #228950) and 2% (2×) Hemoglobin was autoclaved at 121° C. for 20 minutes to sterilize. Once cooled to ˜50° C. the 2×GC Agar Base and 2× Hemoglobin solutions are combined and 1% IsoVitaleX Enrichment (BD #211876) was added to the solution). Strains were incubated at 36° C. and 5% CO2 to allow growth of colonies, 24 hours before inoculum preparation. 2-fold serial dilutions of test compounds were conducted in a 96 well plate with a final volume of 75 μL per well at 2-fold the final desired concentration in Fastidious broth (Remel #R07664). For preparation of assay inoculum, a direct suspension was prepared by aseptically swabbing 10-15 colonies from agar plates into culture tubes containing 2 mL of fresh sterile saline. After the dilution plates were set up, direct suspensions were then diluted in a cuvette containing sterile saline and the optical density was measured at 600 nm. Inocula were diluted such that 75 μL of this culture in Fastidious broth results in a starting bacterial concentration of 5×10^5 CFU/mL when added to the dilution plates. The plates were incubated for ˜24 hours at 36° C. and 5% CO2.
The target of experiment [3] is T1, PBP3 from Escherichia coli (K-12) (Escherichia coli, UniProt P0AD68).
T1 construct: made in house
T1 sequence (P0AD68 1-577): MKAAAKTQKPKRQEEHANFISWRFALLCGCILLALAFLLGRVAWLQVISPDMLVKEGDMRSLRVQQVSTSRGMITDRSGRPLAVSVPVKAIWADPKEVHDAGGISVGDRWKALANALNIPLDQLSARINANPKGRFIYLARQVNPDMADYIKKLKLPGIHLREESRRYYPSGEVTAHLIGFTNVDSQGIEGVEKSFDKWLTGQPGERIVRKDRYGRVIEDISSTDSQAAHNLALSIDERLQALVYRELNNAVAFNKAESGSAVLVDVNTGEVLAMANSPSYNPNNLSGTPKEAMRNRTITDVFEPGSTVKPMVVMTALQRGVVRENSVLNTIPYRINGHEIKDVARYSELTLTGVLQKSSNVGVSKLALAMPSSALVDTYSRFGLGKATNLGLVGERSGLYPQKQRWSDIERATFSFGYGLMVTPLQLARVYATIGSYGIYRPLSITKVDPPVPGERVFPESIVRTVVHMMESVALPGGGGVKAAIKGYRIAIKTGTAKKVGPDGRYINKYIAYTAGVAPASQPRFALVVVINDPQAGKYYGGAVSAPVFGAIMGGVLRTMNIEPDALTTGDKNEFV
The experiment can be described thus: Bocillin-FL fluorescence polarization competition binding, E. coli PBP3. In outline:
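Purified PBPs pre-incubated with inhibitor (E. coli PBP3 1.5 μM, 30 min; P. aeruginosa PBP3 0.75 μM, A. baumannii PBP1a 1 μM and PBP3 0.2 μM, 15 min), then Bocillin-FL 0.1 μM (0.05 μM for PBP1a) added; FP read up to 60 min. EC50 = concentration halving bound Bocillin-FL.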

Experiment [4] concerns E. coli AG100. The experiment can be described thus: microbe, parasite or virus in culture. The experiment is classed as cell-based. The note with it: Escherichia coli, AG100, read-out: MIC E. coli AG100.

By EC50 is commonly meant the concentration at which the effect is half-maximal.

Converted amounts (≈) assume the structure as drawn.

Consider `CS(=O)(=O)N1CCN(C(=O)NC(C(=O)N[C@H]2Cc3cccc(C(=O)O)c3OB2O)c2ccc(P(=O)(O)O)c(O)c2)C1=O` (stereo partly drawn) [Example 17, (3R)-2-hydroxy-3-(2-(3-hydroxy-4-phosphonophenyl)-2-(3-(methylsulfonyl)-2-oxoimidazolidine-1-carboxamido)acetamido)-3,4-dihydro-2H-benzo[e][1,2]oxaborinine-8-carboxylic acid], for which the MIC was less than 1 µg/mL in experiment [1], less than 1 µg/mL in experiment [2] and 8 to 16 µg/mL (≈ 12.8 to 25.5 µM) in experiment [4]. Moreover, the EC50 in experiment [3] was less than 10 µM.

For the compound `CCN1CCN(C(=O)NC(C(=O)N[C@H]2Cc3cccc(C(=O)O)c3OB2O)c2ccc(CP(=O)(O)O)cc2)C(=O)C1=O` (stereo partly drawn) [Example 20, (3R)-3-(2-(4-ethyl-2,3-dioxopiperazine-1-carboxamido)-2-(4-(phosphonomethyl)phenyl)acetamido)-2-hydroxy-3,4-dihydro-2H-benzo[e][1,2]oxaborinine-8-carboxylic acid], the MIC in experiment [1] is less than 1 µg/mL; in experiment [2], 1 to 2 µg/mL (≈ 1.66 to 3.32 µM); in experiment [4], 8 to 16 µg/mL (≈ 13.3 to 26.6 µM). The EC50 in experiment [3] is less than 10 µM.

Consider `CCN1CCN(C(=O)NC(C(=O)N[C@H]2Cc3cccc(C(=O)O)c3OB2O)c2ccc(P(=O)(O)O)c(O)c2)C(=O)C1=O` (stereo partly drawn) [Example 21, (3R)-3-(2-(4-ethyl-2,3-dioxopiperazine-1-carboxamido)-2-(3-hydroxy-4-phosphonophenyl)acetamido)-2-hydroxy-3,4-dihydro-2H-benzo[e][1,2]oxaborinine-8-carboxylic acid], for which the MIC in experiment [1] is less than 1 µg/mL; in experiment [2] it was less than 1 µg/mL; in experiment [4], 8 to 16 µg/mL (≈ 13.2 to 26.5 µM). The EC50 in experiment [3] is less than 10 µM.

Take `CCN1CCN(C(=O)NC(C(=O)N[C@H]2Cc3cccc(C(=O)O)c3OB2O)c2cccc(CP(=O)(O)O)c2)C(=O)C1=O` (stereo partly drawn) [Example 22, (3R)-3-(2-(4-ethyl-2,3-dioxopiperazine-1-carboxamido)-2-(3-(phosphonomethyl)phenyl)acetamido)-2-hydroxy-3,4-dihydro-2H-benzo[e][1,2]oxaborinine-8-carboxylic acid]: the figures for the MIC in experiment [1], in experiment [2] and in experiment [4] were 1 to 2 µg/mL (≈ 1.66 to 3.32 µM), 4 to 8 µg/mL (≈ 6.64 to 13.3 µM) and 8 to 16 µg/mL (≈ 13.3 to 26.6 µM), respectively. Moreover, the EC50 in experiment [3] was less than 10 µM.

On to `CCN1CCN(C(=O)NC(C(=O)N[C@H]2Cc3cccc(C(=O)O)c3OB2O)c2c(F)cc(P(=O)(O)O)cc2F)C(=O)C1=O` (stereo partly drawn) [Example 25, (3R)-3-(2-(2,6-difluoro-4-phosphonophenyl)-2-(4-ethyl-2,3-dioxopiperazine-1-carboxamido)acetamido)-2-hydroxy-3,4-dihydro-2H-benzo[e][1,2]oxaborinine-8-carboxylic acid], for which the MIC is less than 1 µg/mL in experiment [1], 4 to 8 µg/mL (≈ 6.41 to 12.8 µM) in experiment [2] and 32 to 64 µg/mL (≈ 51.3 to 103 µM) in experiment [4]. Besides, the EC50 in experiment [3] was less than 10 µM.

Regarding `CC(=O)NC(C(=O)N[C@H]1Cc2cccc(C(=O)O)c2OB1O)c1ccc(P(=O)(O)O)cc1` (stereo partly drawn) [Example 26, (3R)-3-(2-acetamido-2-(4-phosphonophenyl)acetamido)-2-hydroxy-3,4-dihydro-2H-benzo[e][1,2]oxaborinine-8-carboxylic acid], the MIC in experiment [1] is 16 to 32 µg/mL (≈ 34.6 to 69.2 µM); in experiment [2] it was 16 to 32 µg/mL (≈ 34.6 to 69.2 µM); in experiment [4], more than 128 µg/mL. The compound also showed an EC50 in experiment [3] of 50 to 250 µM.

`CCC(=O)NC(C(=O)N[C@H]1Cc2cccc(C(=O)O)c2OB1O)c1ccc(P(=O)(O)O)cc1` (stereo partly drawn) [Example 27, (3R)-2-hydroxy-3-(2-(4-phosphonophenyl)-2-propionamidoacetamido)-3,4-dihydro-2H-benzo[e][1,2]oxaborinine-8-carboxylic acid]: the MIC in experiment [1] was 16 to 32 µg/mL (≈ 33.6 to 67.2 µM); in experiment [2], 16 to 32 µg/mL (≈ 33.6 to 67.2 µM); in experiment [4] it was more than 128 µg/mL. This compound came in with a concentration giving a half-maximal response (EC50) in experiment [3] of 50 to 250 µM.

Consider `CC(C)C(=O)NC(C(=O)N[C@H]1Cc2cccc(C(=O)O)c2OB1O)c1ccc(P(=O)(O)O)cc1` (stereo partly drawn) [Example 28, (3R)-2-hydroxy-3-(2-isobutyramido-2-(4-phosphonophenyl)acetamido)-3,4-dihydro-2H-benzo[e][1,2]oxaborinine-8-carboxylic acid], for which the values for the MIC in experiment [1], in experiment [2] and in experiment [4] were 16 to 32 µg/mL (≈ 32.6 to 65.3 µM), 16 to 32 µg/mL (≈ 32.6 to 65.3 µM) and more than 128 µg/mL, respectively. For the same compound, the EC50 in experiment [3] was in the range of 50 to 250 µM.

For the compound `CC(C)(C)C(=O)NC(C(=O)N[C@H]1Cc2cccc(C(=O)O)c2OB1O)c1ccc(P(=O)(O)O)cc1` (stereo partly drawn) [Example 29, (3R)-2-hydroxy-3-(2-(4-phosphonophenyl)-2-pivalamidoacetamido)-3,4-dihydro-2H-benzo[e][1,2]oxaborinine-8-carboxylic acid], the MIC is 16 to 32 µg/mL (≈ 31.7 to 63.5 µM) in experiment [1], 16 to 32 µg/mL (≈ 31.7 to 63.5 µM) in experiment [2] and more than 128 µg/mL in experiment [4]. The EC50 in experiment [3] lay in the range of 50 to 250 µM.

Consider `O=C(O)c1cccc2c1OB(O)[C@@H](NC(=O)C(NC(=O)C1CC1)c1ccc(P(=O)(O)O)cc1)C2` (stereo partly drawn) [Example 30, (3R)-3-(2-(cyclopropanecarboxamido)-2-(4-phosphonophenyl)acetamido)-2-hydroxy-3,4-dihydro-2H-benzo[e][1,2]oxaborinine-8-carboxylic acid], for which the MIC in experiment [1] is 16 to 32 µg/mL (≈ 32.8 to 65.5 µM); in experiment [2], 16 to 32 µg/mL (≈ 32.8 to 65.5 µM); in experiment [4] it was more than 128 µg/mL. For the same compound, the EC50 in experiment [3] fell in the range of 50 to 250 µM.

On to `O=C(O)c1cccc2c1OB(O)[C@@H](NC(=O)C(NC(=O)C1CCCCC1)c1ccc(P(=O)(O)O)cc1)C2` (stereo partly drawn) [Example 31, (3R)-3-(2-(cyclohexanecarboxamido)-2-(4-phosphonophenyl)acetamido)-2-hydroxy-3,4-dihydro-2H-benzo[e][1,2]oxaborinine-8-carboxylic acid], for which the MIC in experiment [1] was 16 to 32 µg/mL (≈ 30.2 to 60.3 µM); in experiment [2], 16 to 32 µg/mL (≈ 30.2 to 60.3 µM); in experiment [4], more than 128 µg/mL. The EC50 in experiment [3] is 50 to 250 µM.

With `O=C(NC(C(=O)N[C@H]1Cc2cccc(C(=O)O)c2OB1O)c1ccc(P(=O)(O)O)cc1)c1ccccn1` (stereo partly drawn) [Example 32, (3R)-2-hydroxy-3-(2-(4-phosphonophenyl)-2-(picolinamido)acetamido)-3,4-dihydro-2H-benzo[e][1,2]oxaborinine-8-carboxylic acid], the MIC was 1 to 2 µg/mL (≈ 1.9 to 3.81 µM) in experiment [1], 16 to 32 µg/mL (≈ 30.5 to 60.9 µM) in experiment [2] and more than 128 µg/mL in experiment [4]. The compound also came in with an EC50 in experiment [3] of 10 to 50 µM.

For `CC(=O)N1CCC[C@@H]1C(=O)N[C@H](C(=O)N[C@H]1Cc2cccc(C(=O)O)c2OB1O)c1ccc(P(=O)(O)O)cc1` [Example 33, (3R)-3-(2-((R)-1-acetylpyrrolidine-2-carboxamido)-2-(4-phosphonophenyl)acetamido)-2-hydroxy-3,4-dihydro-2H-benzo[e][1,2]oxaborinine-8-carboxylic acid], the MIC was 16 to 32 µg/mL (≈ 28.6 to 57.2 µM) in experiment [1], 16 to 32 µg/mL (≈ 28.6 to 57.2 µM) in experiment [2] and more than 128 µg/mL in experiment [4]. The EC50 in experiment [3] lay in the range of 50 to 250 µM.

As to `CS(=O)(=O)N1CCC[C@@H]1C(=O)N[C@H](C(=O)N[C@H]1Cc2cccc(C(=O)O)c2OB1O)c1ccc(P(=O)(O)O)cc1` [Example 34, (R)-2-hydroxy-3-((S)-2-((R)-1-(methylsulfonyl)pyrrolidine-2-carboxamido)-2-(4-phosphonophenyl)acetamido)-3,4-dihydro-2H-benzo[e][1,2]oxaborinine-8-carboxylic acid], the MIC in experiment [1] was 16 to 32 µg/mL (≈ 26.9 to 53.8 µM); in experiment [2] it was 16 to 32 µg/mL (≈ 26.9 to 53.8 µM); in experiment [4] it was more than 128 µg/mL. For the same compound, the EC50 in experiment [3] fell in the range of 50 to 250 µM.

Take `CS(=O)(=O)N1CCC[C@@H]1C(=O)N[C@@H](C(=O)N[C@H]1Cc2cccc(C(=O)O)c2OB1O)c1ccc(P(=O)(O)O)cc1` [Example 35, (R)-2-hydroxy-3-((R)-2-((R)-1-(methylsulfonyl)pyrrolidine-2-carboxamido)-2-(4-phosphonophenyl)acetamido)-3,4-dihydro-2H-benzo[e][1,2]oxaborinine-8-carboxylic acid]: the MIC in experiment [1] was 4 to 8 µg/mL (≈ 6.72 to 13.4 µM); in experiment [2], 16 to 32 µg/mL (≈ 26.9 to 53.8 µM); in experiment [4] it was more than 128 µg/mL. The same compound returned an EC50 in experiment [3] of 10 to 50 µM.

On to `O=C(O)c1cccc2c1OB(O)[C@@H](NC(=O)[C@@H](NC(=O)N1CCCCC1=O)c1ccc(P(=O)(O)O)cc1)C2` [Example 36, (R)-2-hydroxy-3-((S)-2-(2-oxopiperidine-1-carboxamido)-2-(4-phosphonophenyl)acetamido)-3,4-dihydro-2H-benzo[39e][1,2]oxaborinine-8-carboxylic acid], for which the MIC is 16 to 32 µg/mL (≈ 29.3 to 58.7 µM) in experiment [1], 16 to 32 µg/mL (≈ 29.3 to 58.7 µM) in experiment [2] and more than 128 µg/mL in experiment [4]. Moreover, the EC50 in experiment [3] was 50 to 250 µM.

Turning to `O=C(O)c1cccc2c1OB(O)[C@@H](NC(=O)[C@H](NC(=O)N1CCCCC1=O)c1ccc(P(=O)(O)O)cc1)C2` [Example 37, (R)-2-hydroxy-3-((R)-2-(2-oxopiperidine-1-carboxamido)-2-(4-phosphonophenyl)acetamido)-3,4-dihydro-2H-benzo[e][1,2]oxaborinine-8-carboxylic acid], the MIC in experiment [1] is 1 to 2 µg/mL (≈ 1.83 to 3.67 µM); in experiment [2], 16 to 32 µg/mL (≈ 29.3 to 58.7 µM); in experiment [4] it was more than 128 µg/mL. This compound also had an EC50 in experiment [3] of less than 10 µM.

In the case of `CN1CCCN(C(=O)NC(C(=O)N[C@H]2Cc3cccc(C(=O)O)c3OB2O)c2ccc(P(=O)(O)O)cc2)C1=O` (stereo partly drawn) [Example 38, (3R)-2-hydroxy-3-(2-(3-methyl-2-oxohexahydropyrimidine-1-carboxamido)-2-(4-phosphonophenyl)acetamido)-3,4-dihydro-2H-benzo[e][1,2]oxaborinine-8-carboxylic acid], the MIC in experiment [1] was 1 to 2 µg/mL (≈ 1.78 to 3.57 µM); in experiment [2], 16 to 32 µg/mL (≈ 28.6 to 57.1 µM); in experiment [4], more than 128 µg/mL. This compound also displayed an EC50 in experiment [3] of 10 to 50 µM.
